{"source": "paper PMC9444293", "about": "(Investigative Radiology, 2022)", "key": {"[1]": {"assay": "Osmolality of the formulation", "type": "physicochemical", "details": "formulation 0.3 mol Gd/L"}, "[2]": {"assay": "Viscosity of the formulation", "type": "physicochemical", "details": "formulation 0.3 mol Gd/L"}, "[3]": {"assay": "Blood-to-plasma partition ratio", "type": "in vitro ADME", "details": "6 human donors, 0.25 mmol Gd/L, 60 minutes, 37°C, mean ± SD"}, "[4]": {"details": "IV 0.1 mmol Gd/kg bw"}, "[5]": {"assay": "Solubility in buffer solution", "type": "physicochemical", "details": "buffer 10 mM Tris-HCl, pH 7.4, room temperature (20°C), 24 hours"}, "[6]": {"type": "physicochemical", "details": "after 3 days"}, "[7]": {"assay": "HPLC-ICP-MS analysis of rat urine for metabolites", "type": "in vivo", "details": "rat urine up to 6 hours after single IV 0.1 mmol Gd/kg bw"}, "plasma proteins [8]": {"test_system": "plasma proteins", "assay": "Protein binding in rat plasma, equilibrium dialysis", "type": "in vitro ADME", "details": "3 μmol Gd/L, 37°C, 2 hours"}, "[9]": {"assay": "Number of inner sphere water molecules", "type": "physicochemical", "details": "per Gd"}, "[10]": {"assay": "Nuclear magnetic relaxation dispersion", "type": "physicochemical", "details": "37°C"}, "[11]": {"assay": "r1-relaxivity at 3.0 T in human plasma", "type": "physicochemical", "details": "for r1-Relaxivity in Human Plasma at 37°C, 3.0 T (per Gd): pH 7.4, per Gd; for r1-Relaxivity in Human Plasma at 37°C, 3.0 T (per molecule): pH 7.4, per molecule"}, "Partition coefficient": {"assay": "Partition coefficient", "type": "physicochemical", "details": "pH 7.4, room temperature"}, "[12]": {"test_system": "GS9L (rat glioblastoma) brain tumors", "assay": "Contrast-enhanced MRI of GS9L brain tumors in rats", "type": "in vivo", "details": "GS9L rats n = 4, 1.5 T, 5 minutes p.i., both 0.1 mmol Gd/kg bw, intraindividual"}, "[13]": {"type": "physicochemical", "details": "37°C, pH 7.4, 21 days (3 weeks)"}, "human hepatocytes": {"test_system": "human hepatocytes", "assay": "Metabolism in human hepatocytes", "type": "in vitro ADME", "details": "2.5 μmol/L (10 μmol Gd/L), 4 hours"}, "[14]": {"details": "rat"}, "r1-relaxivity at 1.41 T": {"assay": "r1-relaxivity at 1.41 T", "type": "physicochemical, human", "details": "for r1-Relaxivity in Human Plasma at 37°C, 1.5 T (per molecule): pH 7.4, per molecule"}, "rat hepatocytes": {"test_system": "rat hepatocytes", "assay": "Metabolism in rat hepatocytes", "type": "in vitro ADME", "details": "2.5 μmol/L (10 μmol Gd/L), 4 hours"}, "plasma proteins [15]": {"test_system": "plasma proteins", "assay": "Protein binding in human plasma, equilibrium dialysis", "type": "in vitro ADME", "details": "3 μmol Gd/L, 37°C, 2 hours"}, "[16]": {"details": "rat, 3-compartment model, listed as BAY 1747846"}, "[17]": {"details": "7 days after single IV 0.1 mmol Gd/kg bw"}, "[18]": {"details": "7 days after single IV 0.1 mmol Gd/kg bw, LLOQ 0.05"}}, "note": "Like-named read-outs stand apart in the source and are kept apart here. Marks after values point to notes of the source that are not given here.", "data": [{"smiles": "CC(C(=O)NCC(=O)NCC(CNC(=O)CNC(=O)C(C)N1CCN(CC(=O)[O-])CCN(CC(=O)[O-])CCN(CC(=O)[O-])CC1)(CNC(=O)CNC(=O)C(C)N1CCN(CC(=O)[O-])CCN(CC(=O)[O-])CCN(CC(=O)[O-])CC1)CNC(=O)CNC(=O)C(C)N1CCN(CC(=O)[O-])CCN(CC(=O)[O-])CCN(CC(=O)[O-])CC1)N1CCN(CC(=O)[O-])CCN(CC(=O)[O-])CCN(CC(=O)[O-])CC1.[Gd+3].[Gd+3].[Gd+3].[Gd+3]", "note": "(stereo not shown) [Gadoquatrane, tetragadolinium [4,10-bis(carboxylatomethyl)-7-{3,6,12,15-tetraoxo-16-[4,7,10-tris-(carboxyl-atomethyl)-1,4,7,10-tetraazacyclododecan-1-yl]-9,9-bis({[({2-[4,7,10-tris-(carboxylatomethyl)-1,4,7,10-tetraazacyclododecan-1-yl]propanoyl}amino)acetyl]-amino}methyl)-4,7,11,14-tetraazahepta-decan-2-yl}-1,4,7,10-tetraazacyclododecan-1-yl]acetate]", "values": [{"measurement": "Osmolality at 37°C", "setting": "[1]", "value": "294 (iso-osmolar to blood) mosmol/kg H2O"}, {"measurement": "Osmolality at 37°C", "setting": "[1]; listed as gadoquatrane", "value": 294, "unit": "mosmol/kg H2O"}, {"measurement": "Viscosity at 37°C", "setting": "[2]", "value": 1.22, "unit": "mPa·s"}, {"measurement": "Blood-to-plasma ratio", "setting": "[3]", "value": "0.62 ± 0.06"}, {"measurement": "AUC^∞", "setting": "[4]; rat plasma", "value": "183 ± 11 (5.8%) μmol·h/L"}, {"measurement": "γ-AUC", "setting": "[4]; rat plasma", "value": "1 % of AUC^∞"}, {"measurement": "γ-AUC", "setting": "[4]; rat plasma, listed as BAY 1747846", "value": "1.2 % of AUC^∞"}, {"measurement": "Clplasma", "setting": "[4]; rat", "value": "0.55 ± 0.03 (5.8%) L/h/kg"}, {"measurement": "Vss", "setting": "[4]; rat", "value": "0.33 ± 0.05 (14%) L/kg"}, {"measurement": "α t1/2", "setting": "[4]; rat, 3-compartment model, mean estimate ± SD (CV%)", "value": "6.3 ± 1.5 (24%) min"}, {"measurement": "β t1/2", "setting": "[4]; [16]", "value": "25 ± 1.6 (6.4%) min"}, {"measurement": "γ t1/2", "setting": "[4]; [16]", "value": "13 ± 2.9 (22%) h"}, {"measurement": "Solubility", "setting": "[5]", "value": 1.43, "unit": "mol Gd/L"}, {"measurement": "Decrease of the T1 relaxation rates (R1) in zinc transmetallation assay", "setting": "[6]", "value": "no Gd^3+ release"}, {"measurement": "Decrease of the T1 relaxation rates (R1) in zinc transmetallation assay", "setting": "[6]; listed as gadoquatrane", "value": "no change"}, {"measurement": "Metabolic stability / formation of metabolites in urine", "setting": "[7]", "value": "high metabolic stability and no hint of formation of metabolites"}, {"measurement": "Free fraction in plasma (fraction unbound)", "setting": "plasma proteins [8]", "value": 93, "unit": "%"}, {"measurement": "No. Inner Sphere Water Molecules (q)", "setting": "[9]", "value": "q = 1"}, {"measurement": "No. Inner Sphere Water Molecules (q)", "setting": "[9]; listed as gadoquatrane", "value": 1}, {"measurement": "NMRD r1-relaxivity per Gd, fold higher compared with gadobutrol, in human plasma", "setting": "[10]; human plasma, up to 200 MHz (4.7 T)", "value": 2, "unit": "fold"}, {"measurement": "NMRD r1-relaxivity per Gd, fold higher compared with gadobutrol, in water", "setting": "[10]; water, 20–200 MHz (0.47–4.7 T)", "value": "~ 3 fold"}, {"measurement": "r1-Relaxivity in Human Plasma at 37°C, 3.0 T (per Gd)", "setting": "[11]", "value": "10.5 ± 0.3", "unit": "mM⁻¹ s⁻¹"}, {"measurement": "r1-Relaxivity in Human Plasma at 37°C, 3.0 T (per Gd)", "setting": "[11]; listed as gadoquatrane", "value": 10.5, "unit": "mM⁻¹ s⁻¹"}, {"measurement": "r1-Relaxivity in Human Plasma at 37°C, 3.0 T (per molecule)", "setting": "[11]", "value": "41.9 ± 0.6", "unit": "mM⁻¹ s⁻¹"}, {"measurement": "r1-Relaxivity in Human Plasma at 37°C, 3.0 T (per molecule)", "setting": "[11]; listed as gadoquatrane", "value": 41.9, "unit": "mM⁻¹ s⁻¹"}, {"measurement": "Log P (1-Butanol/Buffer)", "setting": "Partition coefficient", "value": "−4.32"}, {"measurement": "CNR (tumor-to-brain) compared with gadobutrol", "setting": "[12]", "value": "clearly higher CNR"}, {"measurement": "Total Gd release after 21 days in human serum", "setting": "[13]", "value": "no release of Gd^3+"}, {"measurement": "In vitro uptake or metabolic degradation in hepatocytes", "setting": "human hepatocytes", "value": "No in vitro uptake or metabolic degradation"}, {"measurement": "Gadolinium concentration, Bone marrow", "setting": "[14]; [17]", "value": "0.413 ± 0.048", "unit": "nmol Gd/g wet tissue"}, {"measurement": "Gadolinium concentration, Carcass", "setting": "[14]; [17]", "value": "0.693 ± 0.126", "unit": "nmol Gd/g wet tissue"}, {"measurement": "Gadolinium concentration, Heart", "setting": "[14]; [17]", "value": "0.133 ± 0.014", "unit": "nmol Gd/g wet tissue"}, {"measurement": "Gadolinium concentration, Intestine", "setting": "[14]; [17]", "value": "0.316 ± 0.120", "unit": "nmol Gd/g wet tissue"}, {"measurement": "Gadolinium concentration, Kidney", "setting": "[14]; [17]", "value": "20.3 ± 1.37", "unit": "nmol Gd/g wet tissue"}, {"measurement": "Gadolinium concentration, Liver", "setting": "[14]; [17]", "value": "0.564 ± 0.065", "unit": "nmol Gd/g wet tissue"}, {"measurement": "Gadolinium concentration, Lung", "setting": "[14]; [17]", "value": "0.359 ± 0.024", "unit": "nmol Gd/g wet tissue"}, {"measurement": "Gadolinium concentration, Mesenterial lymph nodes", "setting": "[14]; [17]", "value": "1.20 ± 0.336", "unit": "nmol Gd/g wet tissue"}, {"measurement": "Gadolinium concentration, Muscle", "setting": "[14]; [17]", "value": "0.119 ± 0.021", "unit": "nmol Gd/g wet tissue"}, {"measurement": "Gadolinium concentration, Skin", "setting": "[14]; [17]", "value": "0.271 ± 0.044", "unit": "nmol Gd/g wet tissue"}, {"measurement": "Gadolinium concentration, Spleen", "setting": "[14]; [17]", "value": "0.654 ± 0.175", "unit": "nmol Gd/g wet tissue"}, {"measurement": "Gadolinium concentration, Stomach", "setting": "[14]; [17]", "value": "0.182 ± 0.023", "unit": "nmol Gd/g wet tissue"}, {"measurement": "Gadolinium concentration, Blood", "setting": "[14]; [18]", "value": "<0.05* nmol Gd/g wet tissue"}, {"measurement": "Gadolinium concentration, Brain", "setting": "[14]; [18]", "value": "<0.08‡ nmol Gd/g wet tissue"}, {"measurement": "Gadolinium concentration, Bone", "setting": "[14]; femur, 7 days after single IV 0.1 mmol Gd/kg bw", "value": "0.470 ± 0.201", "unit": "nmol Gd/g wet tissue"}, {"measurement": "Amount of Gd recovered in Feces, 0–5 d", "setting": "[14]; in vivo, iv", "value": "1.35% ± 0.6%"}, {"measurement": "Amount of Gd recovered in Urine, 0–1 d", "setting": "[14]; in vivo, iv", "value": "96.4% ± 3.8%"}, {"measurement": "Amount of Gd recovered in Urine, 0–5 d", "setting": "[14]; in vivo, iv", "value": "96.9% ± 3.7%"}, {"measurement": "Total recovery of Gd, 0–7 d", "setting": "[14]; in vivo, iv", "value": "98.8% ± 6.2%"}, {"measurement": "Excreted within 7 days", "setting": "[14]; single IV 0.1 mmol Gd/kg bw", "value": "> 99 % of the injected dose"}, {"measurement": "r1-Relaxivity in Human Plasma at 37°C, 1.5 T (per Gd)", "setting": "r1-relaxivity at 1.41 T; 60 MHz (1.41 T), 37°C, pH 7.4, per Gd, mean ± SD, n = 6 batches", "value": "11.8 ± 0.3", "unit": "mM⁻¹ s⁻¹"}, {"measurement": "r1-Relaxivity in Human Plasma at 37°C, 1.5 T (per molecule)", "setting": "r1-relaxivity at 1.41 T; 60 MHz (1.41 T), 37°C", "value": "47.2 ± 1.0", "unit": "mM⁻¹ s⁻¹"}, {"measurement": "r1-Relaxivity in Human Plasma at 37°C, 1.5 T (per molecule)", "setting": "r1-relaxivity at 1.41 T; 60 MHz (1.41 T), 37°C, listed as gadoquatrane", "value": 47.2, "unit": "mM⁻¹ s⁻¹"}, {"measurement": "r1-relaxivity in human plasma, fold higher per Gd compared with established GBCAs", "setting": "r1-relaxivity at 1.41 T; human plasma, per Gd, vs established (m)GBCAs", "value": "more than 2 fold"}, {"measurement": "In vitro uptake or metabolic degradation in hepatocytes", "setting": "rat hepatocytes", "value": "No in vitro uptake or metabolic degradation"}, {"measurement": "Free fraction in plasma (fraction unbound)", "setting": "plasma proteins [15]", "value": 96, "unit": "%"}]}]}
